Earlier results in patent US11077099B2, “Oral tablet formulation of lenalidomide” (SAMYANG HOLDINGS CORPORATION, priority 2016, dated 2021).

Tested on: multiple myeloma
Settings: combination of lenalidomide and dexamethasone; patients with relapses or refractory disease

## Nc1cccc2c1CN(C1CCC(=O)NC1=O)C2=O (centres unmarked) [lenalidomide]
  disease-free survival time: 13.4 months
  overall survival: 38 months
